The text below walks through data of patent US8138334B2, “Substituted oxa-diaza-spiro-[5.5]-undecanone derivatives and their use as neurokinin antagonists” (Janssen Pharmaceutica N.V., priority 2005, dated 2012).

Series [1] deals with NK1 (Homo sapiens, UniProt P25103). Briefly: Signal transduction (ST), intracellular Ca++ FLIPR, NK1. The settings on record: antagonist, read-out: NK1 pIC50 (converted). It is filed as cell-based. As to the method:
This test evaluates in vitro functional NK1 antagonistic activity. For the measurements of intracellular Ca^++ concentrations the cells were grown on 96-well (black wall/transparent bottom) plates from Costar for 2 days until they reached confluence. The cells were loaded with 2 μM Fluo3 in DMEM containing 0.1% BSA and 2.5 mM probenecid for 1 h at 37° C. They were washed 3× with a Krebs buffer (140 mM NaCl, 1 mM MgCl2×6H2O, 5 mM KCl, 10 mM glucose, 5 mM HEPES; 1.25 mM CaCl2; pH 7.4) containing 2.5 mM probenecid and 0.1% BSA (Ca^++-buffer). The cells were preincubated with a concentration range of antagonists for 20 min at RT and Ca^++-signals after addition of the agonists were measured in a Fluorescence Image Plate Reader (FLIPR from Molecular Devices, Crawley, England). The peak of the Ca^++-transient was considered as the relevant signal and the mean values of corresponding wells were analysed as described below.
The sigmoidal dose response curves were analysed by computerised curve-fitting, using the GraphPad Program. The EC50-value of a compound is the effective dose showing 50% of maximal effect. For mean curves the response to the agonist with the highest potency was normalised to 100%. For antagonist responses the IC50-value was calculated using non-linear regression. […]

Series [2] deals with T1, NK2 (Homo sapiens, UniProt P21452).
T1 sequence (P21452 1-398): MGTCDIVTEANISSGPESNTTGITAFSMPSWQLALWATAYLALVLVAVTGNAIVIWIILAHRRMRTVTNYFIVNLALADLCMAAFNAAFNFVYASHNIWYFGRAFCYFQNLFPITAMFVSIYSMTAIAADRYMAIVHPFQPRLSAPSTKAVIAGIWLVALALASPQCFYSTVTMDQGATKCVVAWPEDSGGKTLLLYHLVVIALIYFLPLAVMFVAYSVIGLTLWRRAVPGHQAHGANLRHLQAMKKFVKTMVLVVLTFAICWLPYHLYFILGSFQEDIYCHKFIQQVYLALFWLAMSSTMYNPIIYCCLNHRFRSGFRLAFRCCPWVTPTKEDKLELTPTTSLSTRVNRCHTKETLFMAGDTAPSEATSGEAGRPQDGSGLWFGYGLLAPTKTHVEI
Briefly: Signal transduction (ST), intracellular Ca++ FLIPR, NK2. In kind it is cell-based. The settings on record: antagonist, read-out: NK2 pIC50 (converted).

Series [3] has as its target T2, NK3 (Homo sapiens, UniProt P29371).
T2 sequence (P29371 1-465): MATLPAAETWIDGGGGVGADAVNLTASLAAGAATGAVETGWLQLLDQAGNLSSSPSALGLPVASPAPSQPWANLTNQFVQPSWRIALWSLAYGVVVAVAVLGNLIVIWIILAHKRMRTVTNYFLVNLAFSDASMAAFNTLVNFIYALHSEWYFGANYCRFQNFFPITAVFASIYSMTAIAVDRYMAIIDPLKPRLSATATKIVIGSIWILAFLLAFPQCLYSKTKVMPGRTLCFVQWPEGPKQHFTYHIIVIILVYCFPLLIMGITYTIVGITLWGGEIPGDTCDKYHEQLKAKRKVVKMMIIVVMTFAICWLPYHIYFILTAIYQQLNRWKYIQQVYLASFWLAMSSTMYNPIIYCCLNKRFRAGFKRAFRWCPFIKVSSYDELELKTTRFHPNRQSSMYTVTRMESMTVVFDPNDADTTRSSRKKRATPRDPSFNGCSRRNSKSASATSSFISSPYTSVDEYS
Briefly: Signal transduction (ST), intracellular Ca++ FLIPR, NK3. In kind it is cell-based. The conditions noted are these: antagonist, read-out: NK3 pIC50 (converted).

Where only a bound is given, the exact number is not on record here.

Sequence of NK1 (P25103 whole entry): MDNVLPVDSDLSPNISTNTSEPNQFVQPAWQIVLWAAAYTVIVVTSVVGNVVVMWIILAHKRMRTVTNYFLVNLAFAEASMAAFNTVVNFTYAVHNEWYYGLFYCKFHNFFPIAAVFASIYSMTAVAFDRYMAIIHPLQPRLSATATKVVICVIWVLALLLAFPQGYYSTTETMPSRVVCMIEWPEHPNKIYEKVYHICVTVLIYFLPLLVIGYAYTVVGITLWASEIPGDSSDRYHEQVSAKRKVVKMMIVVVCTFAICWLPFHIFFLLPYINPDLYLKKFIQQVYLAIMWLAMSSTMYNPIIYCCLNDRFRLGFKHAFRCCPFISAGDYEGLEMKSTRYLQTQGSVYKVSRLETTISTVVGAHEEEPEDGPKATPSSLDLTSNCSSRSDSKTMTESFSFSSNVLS

Take `CC(C)(C)CN1CCC2(CCN(C3CCN(C(=O)c4cc(C(F)(F)F)cc(C(F)(F)F)c4)C(Cc4ccccc4)C3)CC2)OC1=O` (single isomer, unassigned) [Compound 2.1]: the IC50 in series [1] is 251 nM; in series [2], more than 10000 nM.
In the case of `CC(C)(C)CN1CCC2(CCN(C3CCN(C(=O)c4cc(C(F)(F)F)cc(C(F)(F)F)c4)C(Cc4ccccc4)C3)CC2)OC1=O` (single isomer, unassigned) [Compound 2.2], the IC50 in series [3] was 3980 nM; in series [1] it was 63.1 nM; in series [2], 2000 nM.
In the case of `CCC(CC)CN1CCC2(CCN(C3CCN(C(=O)c4cc(C(F)(F)F)cc(C(F)(F)F)c4)C(Cc4ccccc4)C3)CC2)OC1=O` (single isomer, unassigned) [Compound 2.3], the IC50 in series [3] is 5010 nM; in series [1] it was 398 nM; in series [2], more than 10000 nM.
Regarding `CCC(CC)CN1CCC2(CCN(C3CCN(C(=O)c4cc(C(F)(F)F)cc(C(F)(F)F)c4)C(Cc4ccccc4)C3)CC2)OC1=O` (single isomer, unassigned) [Compound 2.4], the IC50 in series [3] was 7940 nM; in series [1], 79.4 nM; in series [2], 5010 nM.
Turning to `Cn1cccc1CN1CCC2(CCN(C3CCN(C(=O)c4cc(C(F)(F)F)cc(C(F)(F)F)c4)C(Cc4ccccc4)C3)CC2)OC1=O` (single isomer, unassigned) [Compound 2.9], the IC50 in series [3] is 3160 nM; in series [1], 631 nM.
In the case of `Cn1cccc1CN1CCC2(CCN(C3CCN(C(=O)c4cc(C(F)(F)F)cc(C(F)(F)F)c4)C(Cc4ccccc4)C3)CC2)OC1=O` (single isomer, unassigned) [Compound 2.10], the IC50 is 3980 nM in series [3], 79.4 nM in series [1] and 2000 nM in series [2].
With `O=C1OC2(CCN1Cc1cccnc1)CCN(C1CCN(C(=O)c3cc(C(F)(F)F)cc(C(F)(F)F)c3)C(Cc3ccccc3)C1)CC2` (single isomer, unassigned) [Compound 2.16], the IC50 in series [3] was 1580 nM; in series [1] it was 398 nM; in series [2], more than 10000 nM.
Turning to `O=C1OC2(CCN1Cc1cccnc1)CCN(C1CCN(C(=O)c3cc(C(F)(F)F)cc(C(F)(F)F)c3)C(Cc3ccccc3)C1)CC2` (single isomer, unassigned) [Compound 2.17], the IC50 in series [3] is 6310 nM; in series [1] it was 100 nM; in series [2] it was 2510 nM.
As for `CC(C)(C)C(=O)N1CCC2(CC1)CCN(C1CCN(C(=O)c3cc(C(F)(F)F)cc(C(F)(F)F)c3)C(Cc3ccccc3)C1)C(=O)O2` (stereo not drawn) [Compound 1.3], the figures for the IC50 in series [3], in series [1] and in series [2] were 79.4 nM, 10 nM and 5010 nM, respectively.
As for `O=C(C1CC1)N1CCC2(CC1)CCN([C@H]1CCN(C(=O)c3cc(C(F)(F)F)cc(C(F)(F)F)c3)[C@H](Cc3ccccc3)C1)C(=O)O2` [Compound 1.4], the figures for the IC50 in series [3], in series [1] and in series [2] were 126 nM, 12.6 nM and 1000 nM, respectively.
The corresponding values for `O=C(C1CCOC1)N1CCC2(CC1)CCN([C@H]1CCN(C(=O)c3cc(C(F)(F)F)cc(C(F)(F)F)c3)[C@H](Cc3ccccc3)C1)C(=O)O2` (stereo partly drawn) [Compound 1.5] are 251 nM, 12.6 nM and 7940 nM.
For the compound `O=C(C1CCOC1)N1CCC2(CC1)CCN(C1CCN(C(=O)c3cc(C(F)(F)F)cc(C(F)(F)F)c3)C(Cc3ccccc3)C1)C(=O)O2` (stereo not drawn) [Compound 1.6], the melting point is 102 °C. Further, the IC50 in series [1] is 25.1 nM.
`O=C(c1ccoc1)N1CCC2(CC1)CCN(C1CCN(C(=O)c3cc(C(F)(F)F)cc(C(F)(F)F)c3)C(Cc3ccccc3)C1)C(=O)O2` (stereo not drawn) [Compound 1.7]: the IC50 in series [3] is 126 nM; in series [1], 15.8 nM; in series [2], 7940 nM.
In turn, `O=C(c1ccoc1)N1CCC2(CC1)CCN(C1CCN(C(=O)c3cc(C(F)(F)F)cc(C(F)(F)F)c3)C(Cc3ccccc3)C1)C(=O)O2` (stereo not drawn) [Compound 1.8] came in with a melting point of 192 °C. Also, the IC50 in series [1] was 25.1 nM.
Turning to `Cc1nnsc1C(=O)N1CCC2(CC1)CCN(C1CCN(C(=O)c3cc(C(F)(F)F)cc(C(F)(F)F)c3)C(Cc3ccccc3)C1)C(=O)O2` (stereo not drawn) [Compound 1.10], the IC50 in series [3] is 316 nM; in series [1] it was 12.6 nM; in series [2] it was 6310 nM.
Consider `O=C(c1ccccc1)N1CCC2(CC1)CCN(C1CCN(C(=O)c3cc(C(F)(F)F)cc(C(F)(F)F)c3)C(Cc3ccccc3)C1)C(=O)O2` (stereo not drawn) [Compound 1.11], for which the IC50 in series [3] is 794 nM; in series [1] it was 31.6 nM; in series [2], more than 10000 nM.
`O=C(c1ccccc1)N1CCC2(CC1)CCN(C1CCN(C(=O)c3cc(C(F)(F)F)cc(C(F)(F)F)c3)C(Cc3ccccc3)C1)C(=O)O2` (stereo not drawn) [Compound 1.12]: the melting point stood at 110 °C. In addition, in series [1], the IC50 was 50.1 nM.
As for `O=C(c1cnccn1)N1CCC2(CC1)CCN(C1CCN(C(=O)c3cc(C(F)(F)F)cc(C(F)(F)F)c3)C(Cc3ccccc3)C1)C(=O)O2` (stereo not drawn) [Compound 1.13], the IC50 is 1580 nM in series [3], 50.1 nM in series [1] and 7940 nM in series [2].
Consider `O=C1OC2(CCN1CC1CCCCC1)CCN(C1CCN(C(=O)c3cc(C(F)(F)F)cc(C(F)(F)F)c3)C(Cc3ccccc3)C1)CC2` (stereo not drawn) [Compound 2.5], for which the IC50 in series [3] is more than 10000 nM; in series [1], 200 nM; in series [2], 5010 nM.
As for `O=C1OC2(CCN1Cc1ccsc1)CCN(C1CCN(C(=O)c3cc(C(F)(F)F)cc(C(F)(F)F)c3)C(Cc3ccccc3)C1)CC2` (stereo not drawn) [Compound 2.6], the IC50 in series [3] was 2510 nM; in series [1] it was 200 nM; in series [2], more than 10000 nM.
For `O=C1OC2(CCN1Cc1ccsc1)CCN(C1CCN(C(=O)c3cc(C(F)(F)F)cc(C(F)(F)F)c3)C(Cc3ccccc3)C1)CC2` (stereo not drawn) [Compound 2.7], the IC50 in series [1] was 158 nM; in series [2], 3980 nM.
As to `O=C1OC2(CCN1Cc1ccoc1)CCN(C1CCN(C(=O)c3cc(C(F)(F)F)cc(C(F)(F)F)c3)C(Cc3ccccc3)C1)CC2` (stereo not drawn) [Compound 2.8], the values for the IC50 in series [3], in series [1] and in series [2] were 6310 nM, 251 nM and more than 10000 nM, respectively.
Turning to `Cc1ccccc1CN1CCC2(CCN(C3CCN(C(=O)c4cc(C(F)(F)F)cc(C(F)(F)F)c4)C(Cc4ccccc4)C3)CC2)OC1=O` (stereo not drawn) [Compound 2.11], the results for the IC50 in series [3], in series [1] and in series [2] were 7940 nM, 398 nM and more than 10000 nM, respectively.
For `Cc1ccccc1CN1CCC2(CCN(C3CCN(C(=O)c4cc(C(F)(F)F)cc(C(F)(F)F)c4)C(Cc4ccccc4)C3)CC2)OC1=O` (stereo not drawn) [Compound 2.12], the IC50 in series [3] is 5010 nM; in series [1], 251 nM; in series [2] it was 3980 nM.
On to `O=C1OC2(CCN1Cc1ccc(O)cc1)CCN(C1CCN(C(=O)c3cc(C(F)(F)F)cc(C(F)(F)F)c3)C(Cc3ccccc3)C1)CC2` (stereo not drawn) [Compound 2.15], for which the values for the IC50 in series [3], in series [1] and in series [2] were 2000 nM, 316 nM and more than 10000 nM, respectively.
